Literature values as cited in patent publication US20230158030A1, “METHODS AND COMPOSITION FOR TREATMENT OF COVID-19 ILLNESS REQUIRING HOSPITALIZATION” (OHIO STATE INNOVATION FOUNDATION, priority 2020, published 2023).

Experiments:
covid-19 = details: active covid-19 syndrome
pneumococcal pneumonia = details: murine pneumococcal pneumonia
[1] = tested on: CAR-T cell mediated cytokine release syndrome; details: murine CAR-T cytokine release syndrome model
T-cell function = details: TLR agonists, PD1 blockade, CAR-T cells
[2] = intranasally to mice starting 72 h after lethal infection

| SMILES | benefit among ill patients (covid-19) | antibiotic mediated killing of bacteria (pneumococcal pneumonia) | monocyte and neutrophil influx into the lung, alveolar macrophage activation, neutrophil influx, cytokine release and plasma leakage (pneumococcal pneumonia) | overall survival (influenza A virus; [2]) | weight loss (influenza A virus; [2]) | inflammatory mediators TNFalpha, IL-1beta, IL-6, KC, and MCP-1 (influenza A virus; mice, lethal influenza A) | morphological changes to the lungs (influenza A virus; mice, lethal influenza A) | T-cell expansion or killing [1] | survival [1] | enhancement of other T-cell based therapies (T-cell function) |
| --- | --- | --- | --- | --- | --- | --- | --- | --- | --- | --- |
| CCN(CCO)CCCC(C)Nc1ccnc2cc(Cl)ccc12 (stereo not shown) [hydroxychloraquine] | antidotal benefit |  |  |  |  |  |  |  |  |  |
| C=CC(=O)N1CCC[C@@H](n2nc(-c3ccc(Oc4ccccc4)cc3)c3c(N)ncnc32)C1 [ibrutinib, 1-[(3R)-3-[4-amino-3-(4-phenoxyphenyl)pyrazolo[3,4-d]pyrimidin-1-yl]piperidin-1-yl]prop-2-en-1-one] |  | not impaired | negatively influence | improved overall survival | diminished weight loss | diminished | decreased alveolar hemorrhage, interstitial thickening, and the presence of alveolar exudate | not abrogating T-cell expansion or killing | improved survival | enhance other T-cell based therapies |
